Experimental data reported in US10525070B2, “Method of treating heart failure” (priority 2015, dated 2020).
Values joined by “and” are separate entries in the source; they are usually repeats but may differ in a detail not shown here. Identical values can stand only once. “Also recorded” adds a separate entry of the source.

Columns and labels:
Type in all cases: in vivo
Tfr1^hrt/hrt mice [1] = experiment: NR rescue experiment, survival of Tfr1^hrt/hrt mice
Description: 129/SvEv mice bearing a floxed Tfrc allele were crossed with transgenic C57BL/6 mice expressing Cre recombinase under the control of the a-MyHC promoter. Backcrossing was with 129/SvEv mice for more than 10 generations and after the initial phenotypic characterization, all studies used mice with a homogeneous 129/SvEv background. Animals were genotyped by polymerase chain reaction (PCR) using genomic DNA from toe clips. Primers for Tfrc alleles, Cre, Hjv alleles, and Rosa26 are described in Table 1.
One-way ANOVA was performed for comparisons between two means, including when the comparison was between the means of WT and Tfr1^hrt/hrt. Survival analysis was performed using Logrank in Graphpad software. P<0.05 was considered statistically significant.
An independent statistical analysis for survival analysis was also performed as described below.
(§1) Survival time was modeled as follows: Tij=μ+Bj+sij
(§2) Where Tij was the survival time (in days) for the i-th mouse in the j-th group. The model explained this in terms of a baseline mean m, an effect bj for the j-th group (relative to baseline) and inter-mouse variation eij. The model was fit using ordinary least squares (1-way ANOVA).
(§3) For the NR rescue experiment, the baseline was Tfr1^hrt/hrt with PBS. There was no significant improvement in mean survival when using just Tfr1^hrt/hrt (0.625 days, p-value=0.26, Table 3). There was, however, a significant improvement in the Tfr1^hrt/hrt with NR group (2.29 days, p-value<0.001). For statistical calculations, lifespan was over 19.6 days for wild-type mice.

WT mice = experiment: NR rescue experiment, survival of WT mice with NR; conditions: baseline Tfr1^hrt/hrt with PBS, for calculations lifespan was over 19.6 days for wild-type mice
Description: as §1, §2, §3

[2] = system: hearts from Tfr1^hrt/hrt mice; experiment: UPR^MT mRNA levels in hearts of NR-treated mice (real-time PCR); conditions: P10 hearts, NR treated vs untreated, FIGS. 19A and 19B
Experimental: Total heart RNA was isolated from flash-frozen tissue using the RNeasy Fibrous Tissue Mini Kit (Qiagen) and reverse transcribed as described in Schmidt et al. (2008) Cell Metab. […] For the microarray analysis, the Affymetrix GeneChip® Mouse Genome 430 2.0 Array was used. A minimum of 200 ng RNA was used for each sample. RNA samples were processed by the Duke Microarray Shared Resource Services. Transcript abundance was quantified by 2-step real-time PCR, using amplification conditions as described in Schmidt et al. (2008) Cell Metab. […] Primers are summarized in Table 2 and Rpl19 was used as an internal control.

[3] = system: hearts from Tfr1^hrt/hrt mice; experiment: p62 protein levels in hearts of NR-treated mice; conditions: NR treated vs untreated, FIGS. 20A and 20B
Description: Atg9A (Novus Biologicals).

Tfr1^hrt/hrt mice [4] = experiment: NAD/NADH ratios in tissue with and without NR treatment; conditions: measurements from tissue

Structure (SMILES): NC(=O)c1ccc[n+]([C@@H]2O[C@H](CO)[C@@H](O)[C@H]2O)c1 [NR, nicotinamide riboside]
- Extension of lifespan (Tfr1^hrt/hrt mice [1]; Tfr1^hrt/hrt mice, NR administration, FIG. 7E): up to 5 days
- Prolongation of lifespans (Tfr1^hrt/hrt mice [1]; Tfr1^hrt/hrt mice, NR vs vehicle, FIG. 7E): up to 50%
- Effect: improvement in mean survival relative to baseline (Tfr1^hrt/hrt mice [1]; Tfr1^hrt/hrt with NR, 750 mg/kg IP daily from P5, baseline Tfr1^hrt/hrt with PBS (10.375), 1-way ANOVA model, p<0.001, 750 mg/kg): 2.29 days and 2.292 days
- Lifespan of treated mice (in words) (Tfr1^hrt/hrt mice [1]; in the absence of iron therapy): increased the lifespan
- Effect: survival relative to baseline (WT mice): 19.625 days
- Expression of UPR^MT mRNAs (Atf4, Lonp1, Ddit3, Fgf21) in heart [2]: decreased expression; also recorded: blunted
- Accumulation of p62 in the hearts [3]: alleviated the accumulation
- NAD/NADH ratios (Tfr1^hrt/hrt mice [4]): inconclusive
